What is called melting point is the temperature of the solid-liquid transition.

In turn, `CC12CCC3c4ccc(OC(=O)Cc5ccc(N(CCCl)CCCl)cc5)cc4CCC3C1CCC2OC(=O)Cc1ccc(N(CCCl)CCCl)cc1` (stereo unspecified) registered a melting point of 52.5 °C.

For the compound `S=C1NCCCCN1`, the melting point was 178 to 180 °C.

Regarding `O=C(O)CCc1cc2c(cc1[N+](=O)[O-])CCC(=O)N2`, the melting point came to 258 °C.

`CCCCCCCCC=O` had a melting point of -18 °C.

The compound `CCCCOCCOCCOCCCC` gave a melting point of -60 °C.

The compound `Cn1c(=O)c(C2=NNC(=O)C2=CNc2ccccc2)c(O)c2ccccc21` showed a melting point of 272 °C. Regarding `NC(=S)c1c[nH]cn1`, the melting point lay within 205 to 207 °C. On to `CCCCCCCCCCCCCCCC(=O)Oc1ccc(N=Cc2cccnc2)cc1`, for which the melting point was found to be 87.6 °C.

`N#C/C(=N\Nc1cccc(O)c1)c1nc2ccccc2s1` registered a melting point of 175 °C. The result for `NNC(=O)C1CC1C(=O)NN` (stereo unspecified) reads 187 to 191 °C. `CCOC(=O)Nc1ccc2c(c1)N(C(=O)CCN1CCOCC1)c1ccccc1S2` gave a melting point of 156 °C.

Turning to `CC(C)C(Br)C(=O)NC(N)=O` (stereo unspecified), the melting point was determined as 154 °C. `CCn1nc(C)cc1C(=O)O` gave a melting point of 139 °C. `CC(Cl)(Cl)C(=O)OCCOc1cc(Cl)c(Cl)cc1Cl` had a melting point of 49.5 °C. Turning to `CCC1(OC(C)=O)CCC2(C)C(CCC3C4CCC(=O)C4(C)CCC32)C1` (stereo unspecified), the melting point was 150 to 152 °C.

The compound `COC(=O)C1(C)CCC(C(=O)O)C1(C)C` (stereo unspecified) displayed a melting point of 74 to 78 °C. To `Cc1c(O)cccc1[N+](=O)[O-]` belongs 150 °C; to `Brc1cc(Br)ncn1`, 51 °C. In turn, `O=Cc1cc([N+](=O)[O-])ccc1Cl` returned a melting point of 79 °C.

Compound `O=Cc1cnc2ccccc2c1` had a melting point of 68 to 71 °C. The result for `CN1CCC23C(=O)CC4C(=CCOC5CC(=O)N(c6c(O)cccc62)C3C54)C1` (stereo unspecified) reads 282 °C.

For `Cc1cc(C)c(C)c(CO)c1C`, the melting point worked out at 112 °C. Compound `CC(=O)c1ccccc1C(C)=O` came in with a melting point of 40 °C. The result for `Cc1cccc(C)c1NC(=O)c1cc(S(N)(=O)=O)c(Cl)cc1O` reads 256 °C; that for `CCCCOC(=O)CCC(=O)OCCCC`, -29.2 °C; that for `COc1ccc(C(=O)c2ccc(-c3ccccc3)cc2)cc1OC`, 107 to 109 °C. Regarding `COc1cc2c(cc1O)C(Cc1ccc(O)cc1)NCC2` (stereo unspecified), the melting point is 220 °C. As for `O=C(NNc1ccccc1)C1CCCCC1`, the melting point came to 164 °C. `CC(CC(C)(C)C1CCCCC1)C1CCCCC1` (stereo unspecified) gave a melting point of -30 °C. Consider `Cc1ccc(C(C(=O)NC(C)(C)C)N(C)C(=O)CCCc2ccc3ccc4cccc5ccc2c3c45)cc1` (stereo unspecified), for which the melting point came to 141 °C. With `C=C=C`, the melting point was -136 °C. To `Cc1ccc(Cl)c([N+](=O)[O-])c1` belongs 7 °C; to `COc1ccc2c(c1)CCC(C(=O)O)C2C` (stereo unspecified), 133 °C; to `COc1ccc(C(C=C(SC)SC)=C(C#N)C#N)cc1`, 149 to 152 °C. For `N#Cc1csc2ccc(Cl)cc12`, the melting point was in the range of 121 to 122 °C. `CCOC(=O)CC=C(c1ccc(OC)cc1)C(C)(C)C(=O)OCC` registered a melting point of 146 °C. For the compound `COc1ccc2sc(S)nc2c1`, the melting point turned out to be 196 °C. `c1ccc(P(C2CCCCC2)C2CCCCC2)cc1` yielded a melting point of 59.5 °C.

In turn, `c1ccc(-c2cc(-c3ccccc3)cc(-c3ccccc3)c2)cc1` came in with a melting point of 172 to 175 °C.

For `CN1CCN(Cc2ccccc2N)CC1`, the melting point lay within 87 to 88 °C. For the compound `CC(=O)Nc1ccc(OC(F)(F)F)cc1`, the melting point is 115 to 117 °C. `Cc1c(N)cc([N+](=O)[O-])cc1C(N)=O`: the melting point is 199 °C.

As to `CSC(SC)=C(C#N)C(=O)c1cccc(Cl)c1`, the melting point was 88 to 91 °C. Turning to `CNC1CC2OC(C)(C1OC)n1c3ccccc3c3c4c(c5c6ccccc6n2c5c31)C(=O)NC4` (stereo unspecified), the melting point was 270 °C. Turning to `Oc1ccc(-c2nnc3n2NC(c2ccco2)S3)cc1` (stereo unspecified), the melting point turned out to be 230 °C. In the case of `O=C(O)CCc1ccccc1F`, the melting point was 76 to 78 °C.

As for `Nc1csc(C(F)(F)F)c1-c1ccccc1`, the melting point lay within 65 to 66 °C. `O=Cc1coc2c(Cl)cc(Cl)cc2c1=O` gave a melting point of 169 to 174 °C.

In turn, `Nc1ccc(F)c(C(=O)O)c1` gave a melting point of 191 °C.

`COc1cc2c(cc1OC)C(C#N)N(C(=O)c1ccccc1)CC2` (stereo unspecified) returned a melting point of 214 to 217 °C. The compound `CC(C)(O)Cc1ccccc1` had a melting point of 24 °C. Compound `COC(=O)C(C)O` (stereo unspecified) came in with a melting point of -66 °C. For the compound `CCCCC1C(=O)NN(c2ccccc2)C1=O` (stereo unspecified), the melting point was found to be 102 °C.

Take `CCOCN(C(=O)CCl)c1c(C)cccc1CC`: the melting point came out at 10.6 °C. Regarding `FC(Cl)C(F)(F)F` (stereo unspecified), the melting point is -199 °C. In turn, `O=S(=O)(O)CC(O)CN1CCOCC1` (stereo unspecified) had a melting point of 273 to 274 °C. Turning to `Cc1ccc(-c2csc(/C(C#N)=N\Nc3cccc(C)c3)n2)cc1`, the melting point was 132 °C. Compound `CC(=O)OC[C@H]1O[C@@H](OC(C)=O)[C@H](OC(C)=O)[C@@H](OC(C)=O)[C@H]1OC(C)=O` registered a melting point of 144 °C. Take `O=C(C(=O)c1ccco1)c1ccco1`: the melting point was 164 °C. In turn, `Cc1cccc(Nc2ccccc2C(=O)O)c1C` returned a melting point of 231 °C. `CC1=NN(c2ccccc2)C(=O)C1Cc1ccc(O)cc1` (stereo unspecified): the melting point turned out to be 210 °C. In the case of `Cc1cc([N+](=O)[O-])cc(Br)c1N`, the melting point was 177 to 183 °C. In the case of `Nc1ccc(S(=O)(=O)Nc2ccc(Cl)nn2)cc1`, the melting point was determined as 187 °C. In turn, `Cc1ccc(C(=O)/C=C/c2ccc(Br)o2)o1` yielded a melting point of 69 °C. As for `CN(C)c1cccc2oc3c(cnn3-c3ccccc3)c(=O)c12`, the melting point lay in the range of 184 to 186 °C. In turn, `COC(=O)c1ccc(Oc2cc(Cl)cc(Cl)c2)o1` gave a melting point of 86 to 89 °C. The compound `Cc1ccc(S(=O)(=O)c2coc(S(N)(=O)=O)c2)cc1` displayed a melting point of 185 °C.

Turning to `Cc1cccc(C(=O)N(NC(=O)c2ccccc2)C(C)(C)C)c1C`, the melting point amounted to 204 °C. `C#CCC(C)(C)C`: the melting point is -75 °C.

On to `Cc1cc(C)c(CC(=O)c2cc3cc(Br)ccc3o2)c(C)c1`, for which the melting point lay in the range of 123 to 124 °C. In the case of `NNC(=S)Nc1ccc(C(F)(F)F)cc1`, the melting point came to 167 °C. Regarding `O=C(O)c1cc(-c2ccccc2)c(C(F)(F)F)s1`, the melting point is 130 to 132 °C.

In turn, `Cl/C(=C\c1ccccc1)c1cccc2ccccc12` returned a melting point of 117 °C. `C=CCN1CCC23c4c5ccc(O)c4OC2C(O)C=CC3C1C5` (stereo unspecified) came in with a melting point of 208 °C. For the compound `N#Cc1c(F)ccc([N+](=O)[O-])c1F`, the melting point was 52.5 °C. `O=S1(=O)c2ccccc2-c2ccccc21` returned a melting point of 231 to 236 °C. As for `CN(C)CCc1c[nH]c2cccc(O)c12`, the melting point was 174 °C. Turning to `CCOC(=O)c1c[nH]c2c(F)cccc2c1=O`, the melting point lay within 205 to 210 °C.

The compound `CCOC(=O)c1nnc(N)o1` returned a melting point of 199 to 201 °C. The compound `CN(c1c(F)c(F)c(F)c(F)c1F)[N+](=O)[O-]` displayed a melting point of 39.5 °C.

Take `CC(=O)NC(N)=O`: the melting point was determined as 218 °C. To `C#CC(C)N(C(=O)CCl)c1ccccc1` (stereo unspecified) belongs 43.5 °C; to `N#Cc1ccc(-n2ccnc2)cc1`, 151 to 153 °C. In the case of `Cc1cccc(C(N)=O)c1C`, the melting point is 157 °C. As for `COc1ccccc1-c1nnc2n1NC(c1ccccc1OC)S2` (stereo unspecified), the melting point came out at 173 °C. The result for `CC(=O)OC(C)OC(C)=O` reads 18.9 °C; that for `COC1=C(OC)/C(=C/C2CCC=CC23OC(=O)C(OC)=C3OC)OC1=O` (stereo unspecified), 118 to 120 °C; that for `O=C1CN(N=Cc2ccc(-c3ccc([N+](=O)[O-])cc3)o2)C(=O)N1`, 280 °C. In turn, `O=[N+]([O-])c1ccc(CCc2ccc([N+](=O)[O-])cc2)cc1` showed a melting point of 181 °C. Compound `BrCCC(c1ccccc1)c1ccccc1` had a melting point of 41 °C. The result for `Cc1n[nH]c(C)c1C` reads 137 to 139 °C; that for `Nc1ccc(S(=O)(=O)NC(=O)c2ccccc2)cc1`, 182 °C; that for `OC(C#CC#CC(O)(c1ccccc1)c1ccccc1Cl)(c1ccccc1)c1ccccc1Cl` (single isomer, unassigned; (+)), 130 to 133 °C. `CC(=O)OCC1OC(OC2(COC(C)=O)OC(COC(C)=O)C(OC(C)=O)C2OC(C)=O)C(OC(C)=O)C(OC(C)=O)C1OC(C)=O` (stereo unspecified) returned a melting point of 86.5 °C. As to `O=C(Cc1ccccc1)OCc1c([N+](=O)[O-])cccc1[N+](=O)[O-]`, the melting point is 90 °C. `Cc1c(N=C=O)cccc1N=C=O` came in with a melting point of 18.3 °C. In turn, `O=C1NC(=O)C(=NNc2ccccc2[N+](=O)[O-])C(=O)N1` yielded a melting point of 290 °C. As to `CC1CCC(C)(C(=O)N(C(=O)C2(C)CCC(C)C2(C)C)c2ccccc2)C1(C)C` (stereo unspecified), the melting point came to 212 °C. Turning to `COc1ccc(C=C(C(=O)O)C(=Cc2ccc(OC)cc2)C(=O)O)cc1`, the melting point was 263 °C.

Consider `O=C(OCCOCCOC(=O)c1ccccc1)c1ccccc1`, for which the melting point is 33.5 °C. `CC(=O)c1sccc1N`: the melting point lay within 86 to 88 °C. In turn, `CC(=O)OCC(=O)C12OC(C)(C)OC1CC1C3CC(F)C4=CC(=O)C=CC4(C)C3(F)C(O)CC12C` (stereo unspecified) registered a melting point of 309 °C. The compound `c1ccc(N2CN(c3ccccc3)CN(c3ccccc3)C2)cc1` returned a melting point of 191 °C. For `Cn1cc(S(=O)(=O)Cl)c(C(F)(F)F)n1`, the melting point is 34 to 36 °C. In turn, `CC(C)C[N+](=O)[O-]` gave a melting point of -76.8 °C. In turn, `C[C@H](O)C(=O)O` registered a melting point of 53 °C.

The values above are taken from a melting point compilation (Tetko et al.).
